In US6780994B2, “Phthalimido arylpiperazines useful in the treatment of benign prostatic hyperplasia” (Ortho-McNeil Pharmaceutical, Inc., priority 1998, dated 2004):

Assays:
α1b-AR = target: T1, α1b-AR (Homo sapiens, UniProt P35368); test: radioligand ([125I]-HEAT) receptor binding assay, COS cell membranes expressing cloned receptor; settings: [125I]-HEAT 50 pM, 1 hour room temperature
T1 construct: expressed in transfected cells; host or cells: COS cells, pcDNA3 vector, transient DEAE-dextran transfection
T1 sequence (P35368 1-520): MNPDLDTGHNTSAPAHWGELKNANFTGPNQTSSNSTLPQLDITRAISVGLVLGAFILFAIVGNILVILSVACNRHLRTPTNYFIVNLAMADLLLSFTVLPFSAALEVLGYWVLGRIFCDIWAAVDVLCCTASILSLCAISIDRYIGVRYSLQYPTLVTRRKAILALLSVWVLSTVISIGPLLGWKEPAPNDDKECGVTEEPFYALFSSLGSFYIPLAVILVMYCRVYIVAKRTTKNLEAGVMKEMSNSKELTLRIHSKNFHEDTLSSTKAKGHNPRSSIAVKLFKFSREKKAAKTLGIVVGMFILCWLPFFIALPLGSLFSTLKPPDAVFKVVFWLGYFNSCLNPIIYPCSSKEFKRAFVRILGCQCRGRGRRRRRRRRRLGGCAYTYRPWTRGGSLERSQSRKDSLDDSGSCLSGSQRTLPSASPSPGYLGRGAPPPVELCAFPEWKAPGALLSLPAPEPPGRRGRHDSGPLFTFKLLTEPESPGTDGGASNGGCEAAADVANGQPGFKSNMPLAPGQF
Description: (§1) The first assay tested the ability of compounds of Formula I to bind to membrane bound receptors α1a-AR, α1b-AR and α1d-AR.
(§2) The DNA sequences of the three cloned human α1-AR subtypes have been published. […] We used published DNA sequence information to design primers for use in RT-PCR amplification of each subtype to obtain cloned cDNAs. Human poly A+ RNA was obtained from commercially available sources and included hippocampus and prostate samples, sources which have been cited in the literature. For the primary screen a radioligand binding assay was used which employed membrane preparations from cells expressing the individual cloned receptor cDNAs. Radiolabeled ligands with binding activity on all three subtypes (non-selective) are commercially available ([125I]-HEAT, [3H]-prazosin). Each α1 receptor subtype was cloned from poly A+ RNA by the standard method of reverse transcription-polymerase chain reaction (RT-PCR). The following sources of polyA+ RNA were used for the cloning of the α1 receptor subtypes: α1a-AR, human hippocampus and prostate, α1b-AR, human hippocampus, α1d-AR, human hippocampus. The resulting cDNAs were cloned into the pcDNA3 mammalian expression vector (Invitrogen Corp., San Diego Calif.). Each DNA was sequenced for verification and to detect any possible mutations introduced during the amplification process. Any deviation in sequence from the published consensus for each receptor subtype was corrected by site-directed mutagenesis.
(§3) The three α1-AR subtypes (a, b, d) were transfected into COS cells using a standard DEAE-dextran procedure with a chloroquine shock. In this procedure, each tissue culture dish (100 mm) was inoculated with 3.5×10^6 cells and transfected with 10 μg of DNA. Approximately 72 hours post-transfection, the cells were harvested and COS membranes were prepared. Transfected COS cells from 25 plates (100 mm) were scraped and suspended in 15 mL of TE buffer (50 mM Tris-HCl, 5 mM EDTA, pH 7.4). The suspension was disrupted with a homogenizer. It was then centrifuged at 1000× g for 10 minutes at 4° C. The supernatant was centrifuged at 34,500× g for 20 minutes at 4° C. The pellet was resuspended in 5 mL TNE buffer (50 mM Tris-HCl, 5 mM EDTA, 150 mM NaCl, pH 7.4). The resulting membrane preparation was aliquoted and stored at −70° C. The protein concentration was determined following membrane solubilization with TritonX-100.
(§4) The ability of each compound to bind to each of the α1-AR subtypes was assessed in a receptor binding assay. [125I]-HEAT, a non-selective α1-AR ligand, was used as the radiolabeled ligand. Each well of a 96-well plate received: 140 μL TNE, […] [125I]-HEAT diluted in TNE (50,000 cpm; final concentration 50 pM), 10 μL test compound diluted in DMSO (final concentration 1 pM-10 μM), […] COS cell membrane preparation expressing one of the three α1-AR subtypes (0.05-0.2 mg membrane protein). The plate was incubated for 1 hour at room temperature and the reaction mixtures were filtered through a Packard GF/C Unifilter filter plate. The filter plate was dried for 1 hour in a vacuum oven. Scintillation fluid ([…]) was added to each well, and the filter plate was counted in a Packard Topcount scintillation counter. Data was analyzed using GraphPad Prism software.
(§5) Tables A through D list the IC50 values expressed in nanomolar concentration for select compounds of the invention in all receptor subtypes.

α1d-AR = target: T2, α1d-AR (Homo sapiens, UniProt P25100); test: as above; settings: [125I]-HEAT 50 pM, 1 hour room temperature
T2 construct: expressed in transfected cells; host or cells: COS cells, pcDNA3 vector, transient DEAE-dextran transfection
T2 sequence (P25100 1-572): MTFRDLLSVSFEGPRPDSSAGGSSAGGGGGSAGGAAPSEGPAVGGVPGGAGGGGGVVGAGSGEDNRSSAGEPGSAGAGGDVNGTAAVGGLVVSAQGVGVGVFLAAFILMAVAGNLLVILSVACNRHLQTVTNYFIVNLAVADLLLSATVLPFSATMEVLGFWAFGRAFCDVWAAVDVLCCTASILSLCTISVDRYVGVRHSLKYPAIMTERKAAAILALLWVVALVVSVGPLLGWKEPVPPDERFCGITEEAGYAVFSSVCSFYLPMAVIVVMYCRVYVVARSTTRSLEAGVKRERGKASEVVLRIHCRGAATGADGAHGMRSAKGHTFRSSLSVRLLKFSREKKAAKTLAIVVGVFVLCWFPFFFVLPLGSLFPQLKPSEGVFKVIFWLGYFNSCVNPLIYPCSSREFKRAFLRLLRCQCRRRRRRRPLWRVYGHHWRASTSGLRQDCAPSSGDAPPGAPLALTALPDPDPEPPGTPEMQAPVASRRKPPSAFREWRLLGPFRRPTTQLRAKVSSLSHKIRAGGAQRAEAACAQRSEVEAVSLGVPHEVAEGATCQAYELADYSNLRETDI
Description: as §1, §2, §3, §4, §5

rat aorta tissues = test: norepinephrine-induced contractile response of rat aortic rings; assay type: cell-based; settings: norepinephrine-induced contraction, Long Evans rat aortic rings, 2 grams tension, 37° C.; read-out: IC50 of inhibition of contractile response in aortic tissue
Description: (§6) The contractile responses of rat prostatic tissue and rat aorta tissues were examined in the presence and absence of antagonist compounds. As an indication of the selectivity of antagonism, test compound effects on vascular smooth muscle contractility (α1b-AR and α1d-AR) were compared to the effects on prostatic smooth muscle (α1a-AR). Strips of prostatic tissue and aortic rings were obtained from Long Evans derived male rats weighing 275 grams and sacrificed by cervical dislocation. The prostate tissue was placed under 1 gram tension in a 10 ml bath containing phosphate buffered saline pH 7.4 at 32° C. and isometric tension was measured with force transducers. The aortic tissue was placed under 2 grams tension in a 10 ml bath containing phosphate buffered saline pH 7.4 at 37° C.

rat prostatic tissue = test: norepinephrine-induced contractile response of rat prostatic tissue strips; assay type: cell-based; settings: norepinephrine-induced contraction, Long Evans rat prostatic strips, 1 gram tension, 32° C.; read-out: IC50 of inhibition of contractile response in prostate tissue
Description: as §6

Row | Compound | IC50 (α1b-AR) [nM] | IC50 (α1d-AR) [nM] | IC50 (rat aorta tissues) [nM] | IC50 (rat prostatic tissue) [nM]
1 | CC(C)Oc1ccccc1N1CCN(C[C@@H](O)CNC(=O)c2ccc3c(c2)C(=O)N(c2ccc(N(C)C)cc2)C3=O)CC1 [Compound 21, (S)-2-[4-(dimethylamino)phenyl]-2,3-dihydro-N-[2-hydroxy-3-[4-[2-(1-methylethoxy)phenyl]-1-piperazinyl]propyl]-1,3-dioxo-1H-isoindole-5-carboxamide] | > 2000 | 52 | 22400 | 810
2 | CC(C)Oc1ccccc1N1CCN(CC(O)CNC(=O)c2ccc3c(c2)C(=O)N(c2cccc(F)c2)C3=O)CC1 (racemic) [Compound 4] | 1830 | 76 | 63200 | 640
3 | COc1ccc(N2C(=O)c3ccc(C(=O)NCCCN4CCN(c5ccccc5OC(C)C)CC4)cc3C2=O)cc1 [Compound 45] | 361 | 16 | 3300 | 40
